Laboratory results published in EPA's ToxValDB 9.5.
Values joined by “and” are separate entries in the source; they are usually repeats but may differ in a detail not shown here. Equal entries are not always repeated.

Test system: Rattus norvegicus
Settings: Wistar
[1] = short-term, duration: 2 weeks, inhalation, F, generation: P0, P0: Lung: Lung Weight, Relative
[2] = short-term, duration: 2 weeks, inhalation, M, generation: P0, P0: Lung: Lung Weight, Relative
[3] = short-term, duration: 28 days, inhalation, F, Teeth: Incisors, Discolored
[4] = short-term, duration: 28 days, inhalation, M, Teeth: Incisors, Discolored
[5] = short-term, duration: 28 days, oral, gavage, F, Blood: Red Cell Distribution Width (RDW) + Liver: Total Cholesterol (CHOL)
[6] = short-term, duration: 28 days, oral, gavage, M, Blood: Hemoglobin (HGB) + Liver: Total Bilirubin (TBILI)

F/C(=C(/F)C(F)(C(F)(F)F)C(F)(F)F)C(F)(F)F [(E)-Perfluoro(4-methyl-2-pentene)]
150 mg/kg-day: NOAEL (short-term, duration: 28 days, oral, gavage, F, Blood: Hematocrit (HCT) + Blood: Mean Cell Volume (MCV) + Blood: Red Blood Cell (RBC) + Calcium (CA) + Chloride (CL) + Gamma-glutamyl …) | LOAEL [5] | NOAEL (short-term, duration: 28 days, oral, gavage, M, Blood: Hematocrit (HCT) + Blood: Mean Cell Volume (MCV) + Blood: Platelet Count (PLT) + Blood: Red Blood Cell (RBC) + Blood: Red Cell …) | LOAEL [6]
3070 mg/m3: NOAEL (short-term, duration: 28 days, inhalation, F, Adrenal: Adrenal Gland Weight, Absolute + Blood: Albumin/Globulin (A/G) Ratio + Blood: Hemoglobin (HGB) + Blood: Mean Cell Volume (MCV) + …) | LOAEL [3] | NOAEL (short-term, duration: 28 days, inhalation, M, Adrenal: Adrenal Gland Weight, Absolute + Blood: Albumin/Globulin (A/G) Ratio + Blood: Hemoglobin (HGB) + Blood: Mean Cell Volume (MCV) + …) | LOAEL [4]
1230 mg/m3 and 1220 mg/m3: NOAEL [3] | NOAEL [4]
50 mg/kg-day: LOAEL (short-term, duration: 28 days, oral, gavage, F, Blood: Hemoglobin (HGB) + Blood: Mean Cell Hemoglobin Concentration (MCHC) + Liver: Liver Weight, Absolute + Spleen: Spleen Weight, Absolute) | NOAEL [5] | NOAEL [6] | LOAEL (short-term, duration: 28 days, oral, gavage, M, Blood: Mean Cell Hemoglobin (MCH) + Blood: Mean Cell Hemoglobin Concentration (MCHC) + Brain: Brain Weight, Absolute + Testis: Testis Weight…)
4290 mg/m3 and 4300 mg/m3: NOAEL (developmental, duration: 2 weeks, inhalation, M/F, generation: F1, F1: Whole Body: Clinical Signs + F1: Whole Body: Fetal Alterations, Total + F1: Whole Body: Male Pups per Pups Sexed + F1: Whole Body: Pup …) | NOAEL (reproduction developmental, duration: 2 weeks, inhalation, F, generation: P0, P0: Ovary: Corpora Lutea + P0: Uterus: Implantation + P0: Whole Body: Dams with Stillborn Pups + P0: Whole Body: Days of Cohabitation + P0: …) | NOAEL (reproduction developmental, duration: 2 weeks, inhalation, M, generation: P0, P0: Whole Body: Days of Cohabitation + P0: Whole Body: Fertility Index + P0: Whole Body: Percent Mating) | NOAEL (short-term, duration: 2 weeks, inhalation, F, generation: P0, P0: Kidney: Kidney, Faded + P0: Liver: Liver Weight, Absolute + P0: Liver: Liver Weight, Relative + P0: Lung: Lung Weight, Absolute + P0: …) | LOAEL [1] | NOAEL (short-term, duration: 2 weeks, inhalation, M, generation: P0, P0: Epididymis: Epididymis Weight, Absolute + P0: Epididymis: Epididymis Weight, Relative + P0: Epididymis: Epididymis, Duct, Exfoliated …) | LOAEL [2]
9200 mg/m3: LOAEL (short-term, duration: 2 weeks, inhalation, F, generation: P0, P0: Kidney: Kidney, Faded + P0: Thymus: Thymus, Small + P0: Whole Body: Body Weight Change + P0: Whole Body: Body Weight, Absolute + P0: …) | LOAEL (short-term, duration: 2 weeks, inhalation, M, generation: P0, P0: Epididymis: Epididymis, Small + P0: Kidney: Kidney, Faded + P0: Prostate: Prostate, Small + P0: Seminal Vesicle: Seminal Vesicle, Small…) | NOAEL (short-term, duration: 2 weeks, inhalation, M, generation: P0, P0: Whole Body: Feed Consumption, Absolute)
1840 mg/m3: NOAEL [1] | NOAEL [2]
21.7 mg/L: LOAEL (acute, duration: 4 hours, inhalation, F, Central Nervous System: Hunched Posture + Central Nervous System: Ruffled Fur + Lung: Lung, Non-Neoplastic Lesions + Lung: Tachypnea + Whole…) | LOAEL (acute, duration: 4 hours, inhalation, M, Central Nervous System: Frightened behavior + Central Nervous System: Ruffled Fur + Central Nervous System: Tremor + Lung: Lung, Non-…)
450 mg/kg-day: NOAEL (short-term, duration: 28 days, oral, gavage, F, Adrenal: Adrenal Gland Histopathology + Blood: Mean Cell Hemoglobin (MCH) + Blood: Platelet Count (PLT) + Bone: Femur Histopathology + Bone…) | LOAEL (short-term, duration: 28 days, oral, gavage, F, Blood: Hematocrit (HCT) + Blood: Hemoglobin (HGB), Recovery + Blood: Mean Cell Volume (MCV) + Blood: Red Blood Cell (RBC) + Calcium (CA) + …) | NOAEL (short-term, duration: 28 days, oral, gavage, M, Adrenal: Adrenal Gland Histopathology + Bone: Femur Histopathology + Bone: Sternum Histopathology + Brain: Brain Weight, Absolute, Recovery…) | LOAEL (short-term, duration: 28 days, oral, gavage, M, Blood: Hematocrit (HCT) + Blood: Mean Cell Hemoglobin Concentration (MCHC), Recovery + Blood: Mean Cell Volume (MCV) + Blood: Platelet Count…)
